Converted amounts (≈) assume the structure as drawn.
Experiments:
Aspergillus ochraceus [1] = experiment: Antifungal activity against Aspergillus ochraceus ATCC 12066 after 72 hrs by microdilution method; format: functional; conditions: ATCC 12066, 72 h
Listeria monocytogenes [2] = experiment: Bactericidal activity against Listeria monocytogenes NCTC 7973 after 72 hrs by microdilution method; format: functional
Escherichia coli [3] = experiment: Antibacterial activity against Escherichia coli ATCC 35210 after 24 hrs by microdilution method; format: functional; conditions: ATCC 35210, 24 h
Aspergillus versicolor [4] = experiment: Fungicidal activity against Aspergillus versicolor ATCC 11730 after 72 hrs by microdilution method; format: functional
Pseudomonas aeruginosa [5] = experiment: Antibacterial activity against Pseudomonas aeruginosa ATCC 27853 after 24 hrs by microdilution method; format: functional; conditions: ATCC 27853, 24 h
Aspergillus niger [6] = experiment: Fungicidal activity against Aspergillus niger ATCC 6275 after 72 hrs by microdilution method; format: functional
Trichoderma viride [7] = experiment: Fungicidal activity against Trichoderma viride IAM 5061 after 72 hrs by microdilution method; format: functional
Aspergillus fumigatus [8] = experiment: Fungicidal activity against Aspergillus fumigatus isolated from human after 72 hrs by microdilution method; format: functional
Staphylococcus aureus [9] = experiment: Bactericidal activity against Staphylococcus aureus ATCC 6538 after 72 hrs by microdilution method; format: functional
Pseudomonas aeruginosa [10] = experiment: Bactericidal activity against Pseudomonas aeruginosa ATCC 27853 after 72 hrs by microdilution method; format: functional
Penicillium ochrochloron [11] = experiment: Antifungal activity against Penicillium ochrochloron ATCC 9112 after 72 hrs by microdilution method; format: functional; conditions: ATCC 9112, 72 h
Enterococcus faecalis [12] = experiment: Antibacterial activity against Enterococcus faecalis ATCC 7080 isolated from human after 24 hrs by microdilution method; format: functional; conditions: ATCC 7080, 24 h
Talaromyces funiculosus [13] = experiment: Fungicidal activity against Penicillium funiculosum ATCC 36839 after 72 hrs by microdilution method; format: functional
Penicillium ochrochloron [14] = experiment: Fungicidal activity against Penicillium ochrochloron ATCC 9112 after 72 hrs by microdilution method; format: functional
Trichoderma viride [15] = experiment: Antifungal activity against Trichoderma viride IAM 5061 after 72 hrs by microdilution method; format: functional; conditions: IAM 5061, 72 h
Staphylococcus aureus [16] = experiment: Antibacterial activity against Staphylococcus aureus ATCC 6538 after 24 hrs by microdilution method; format: functional; conditions: ATCC 6538, 24 h
Talaromyces funiculosus [17] = experiment: Antifungal activity against Penicillium funiculosum ATCC 36839 after 72 hrs by microdilution method; format: functional; conditions: ATCC 36839, 72 h
Salmonella typhimurium [18] = experiment: Bactericidal activity against Salmonella typhimurium ATCC 13311 after 72 hrs by microdilution method; format: functional, Salmonella enterica subsp. enterica serovar Typhimurium
Aspergillus flavus [19] = experiment: Antifungal activity against Aspergillus flavus ATCC 9643 after 72 hrs by microdilution method; format: functional; conditions: ATCC 9643, 72 h
Aspergillus versicolor [20] = experiment: Antifungal activity against Aspergillus versicolor ATCC 11730 after 72 hrs by microdilution method; format: functional; conditions: ATCC 11730, 72 h
Bacillus cereus [21] = experiment: Antibacterial activity against Bacillus cereus clinical isolate after 24 hrs by microdilution method; format: functional
Salmonella typhimurium [22] = experiment: Antibacterial activity against Salmonella typhimurium ATCC 13311 after 24 hrs by microdilution method; format: functional, Salmonella enterica subsp. enterica serovar Typhimurium; conditions: Salmonella enterica, ATCC 13311, 24 h
Listeria monocytogenes [23] = experiment: Antibacterial activity against Listeria monocytogenes NCTC 7973 after 24 hrs by microdilution method; format: functional; conditions: NCTC 7973, 24 h
Micrococcus flavus [24] = experiment: Antibacterial activity against Micrococcus flavus ATCC 10240 after 24 hrs by microdilution method; format: functional; conditions: ATCC 10240, 24 h
Escherichia coli [25] = experiment: Bactericidal activity against Escherichia coli ATCC 35210 after 72 hrs by microdilution method; format: functional
Aspergillus niger [26] = experiment: Antifungal activity against Aspergillus niger ATCC 6275 after 72 hrs by microdilution method; format: functional; conditions: ATCC 6275, 72 h
Micrococcus flavus [27] = experiment: Bactericidal activity against Micrococcus flavus ATCC 10240 after 72 hrs by microdilution method; format: functional
Enterococcus faecalis [28] = experiment: Bactericidal activity against Enterococcus faecalis ATCC 7080 isolated from human after 72 hrs by microdilution method; format: functional
Aspergillus fumigatus [29] = experiment: Antifungal activity against Aspergillus fumigatus isolated from human after 72 hrs by microdilution method; format: functional
Aspergillus flavus [30] = experiment: Fungicidal activity against Aspergillus flavus ATCC 9643 after 72 hrs by microdilution method; format: functional
Aspergillus ochraceus [31] = experiment: Fungicidal activity against Aspergillus ochraceus ATCC 12066 after 72 hrs by microdilution method; format: functional
Bacillus cereus [32] = experiment: Bactericidal activity against Bacillus cereus clinical isolate after 72 hrs by microdilution method; format: functional
Enterobacter cloacae [33] = experiment: Bactericidal activity against Enterobacter cloacae ATCC 35030 isolated from human after 72 hrs by microdilution method; format: functional
Enterobacter cloacae [34] = experiment: Antibacterial activity against Enterobacter cloacae ATCC 35030 isolated from human after 24 hrs by microdilution method; format: functional; conditions: ATCC 35030, 24 h

Compound | MBC99.5 (Listeria monocytogenes [2]) | MIC (Escherichia coli [3]) | MIC (Pseudomonas aeruginosa [5]) | MBC99.5 (Staphylococcus aureus [9]) | MBC99.5 (Pseudomonas aeruginosa [10]) | MIC (Enterococcus faecalis [12]) | MIC (Staphylococcus aureus [16]) | MBC99.5 (Salmonella typhimurium [18]) | MIC (Bacillus cereus [21]) | MIC (Salmonella typhimurium [22]) | MIC (Listeria monocytogenes [23]) | MIC (Micrococcus flavus [24]) | MBC99.5 (Escherichia coli [25]) | MBC99.5 (Micrococcus flavus [27]) | MBC99.5 (Enterococcus faecalis [28]) | MBC99.5 (Bacillus cereus [32]) | MBC99.5 (Enterobacter cloacae [33]) | MIC (Enterobacter cloacae [34]) | also measured
CNc1nc(C)c(C2=NN(c3ccccc3)C(c3ccc(F)cc3)C2)s1 (stereo not drawn) | 95.5 ×10⁻² umol/ml | 54.6 µM (≈ 20 µg/mL) | 27.3 µM (≈ 10 µg/mL) | 27.3 ×10⁻² umol/ml | 27.3 ×10⁻² umol/ml | 54.6 µM (≈ 20 µg/mL) | 27.3 µM (≈ 10 µg/mL) | 27.3 ×10⁻² umol/ml | 54.6 µM (≈ 20 µg/mL) | 54.6 µM (≈ 20 µg/mL) | 54.6 µM (≈ 20 µg/mL) | 54.6 µM (≈ 20 µg/mL) | 47.8 ×10⁻² umol/ml | 47.8 ×10⁻² umol/ml | 27.3 ×10⁻² umol/ml | 27.3 ×10⁻² umol/ml | – | – | MIC (Aspergillus ochraceus [1]): 54.6 µM (≈ 20 µg/mL); MFC99.5 (Aspergillus versicolor [4]): 21.4 ×10⁻² umol/ml; MFC99.5 (Aspergillus niger [6]): 95.5 ×10⁻² umol/ml; MFC99.5 (Trichoderma viride [7]): 47.8 ×10⁻² umol/ml; MFC99.5 (Aspergillus fumigatus [8]): 10.92 ×10⁻² umol/ml; MIC (Penicillium ochrochloron [11]): 214 µM (≈ 78.4 µg/mL); MFC99.5 (Talaromyces funiculosus [13]): 27.3 ×10⁻² umol/ml; MFC99.5 (Penicillium ochrochloron [14]): 47.8 ×10⁻² umol/ml; MIC (Trichoderma viride [15]): 109 µM (≈ 40 µg/mL); MIC (Talaromyces funiculosus [17]): 109 µM (≈ 40 µg/mL); MIC (Aspergillus flavus [19]): 54.6 µM (≈ 20 µg/mL); MIC (Aspergillus versicolor [20]): 54.6 µM (≈ 20 µg/mL); MIC (Aspergillus niger [26]): 478 µM (≈ 175 µg/mL); MIC (Aspergillus fumigatus [29]): 54.6 µM (≈ 20 µg/mL); MFC99.5 (Aspergillus flavus [30]): 47.8 ×10⁻² umol/ml; MFC99.5 (Aspergillus ochraceus [31]): 27.3 ×10⁻² umol/ml
CC1(C)S[C@@H]2[C@H](NC(=O)[C@H](N)c3ccccc3)C(=O)N2[C@H]1C(=O)O [AMPICILLIN] | 74.4 ×10⁻² umol/ml | 372 µM (≈ 130 µg/mL) | 744 µM (≈ 260 µg/mL) | 37.2 ×10⁻² umol/ml | 124 ×10⁻² umol/ml | 248 µM (≈ 86.7 µg/mL) | 248 µM (≈ 86.7 µg/mL) | 49.2 ×10⁻² umol/ml | 248 µM (≈ 86.7 µg/mL) | 248 µM (≈ 86.7 µg/mL) | 372 µM (≈ 130 µg/mL) | 248 µM (≈ 86.7 µg/mL) | 49.2 ×10⁻² umol/ml | 37.2 ×10⁻² umol/ml | 37.2 ×10⁻² umol/ml | 37.2 ×10⁻² umol/ml | 37.2 ×10⁻² umol/ml | 248 µM (≈ 86.7 µg/mL) | –
CN[C@@H]1[C@H](O[C@H]2[C@H](O[C@H]3[C@H](O)[C@@H](O)[C@H](N=C(N)N)[C@@H](O)[C@@H]3N=C(N)N)O[C@@H](C)[C@]2(O)C=O)O[C@@H](CO)[C@H](O)[C@H]1O [STREPTOMYCIN] | 51.6 ×10⁻² umol/ml | 172 µM (≈ 100 µg/mL) | 172 µM (≈ 100 µg/mL) | 34.4 ×10⁻² umol/ml | 34.4 ×10⁻² umol/ml | 43 µM (≈ 25 µg/mL) | 172 µM (≈ 100 µg/mL) | 34.4 ×10⁻² umol/ml | 43 µM (≈ 25 µg/mL) | 172 µM (≈ 100 µg/mL) | 258 µM (≈ 150 µg/mL) | 86 µM (≈ 50 µg/mL) | 34.4 ×10⁻² umol/ml | 17.2 ×10⁻² umol/ml | 8.6 ×10⁻² umol/ml | 8.6 ×10⁻² umol/ml | 8.6 ×10⁻² umol/ml | 43 µM (≈ 25 µg/mL) | –

From ChEMBL document CHEMBL3585344, “Thiazole-based aminopyrimidines and N-phenylpyrazolines as potent antimicrobial agents: synthesis and biological evaluation” (2014)
